Source: patent US7608611B2, “Hsp90 inhibitors, methods of making and uses therefor” (The Regents of the University of Colorado, priority 2005, dated 2009)
Read-outs that look alike come from different tables or passages of the source.

Legend:
[1] = tested on: MDA468 cells; assay: Metabolism of 17-AAG in intact MDA468 cells, HPLC; assay type: cell-based, human; conditions: 5 μM 17-AAG, 4 hr
[2] = tested on: MDA468 cells; conditions: read-out: IC50 growth inhibition; parental MDA468 cells, 4 hr exposure then 72 hr drug-free, MTT
Procedure: (§2) Cells were seeded at 2×10^3 cells per well (96 well plate) in complete medium overnight.

[3] = tested on: MDA468/NQ16 cells; conditions: MTT
Procedure: as §2

[4] = biological target: yeast Hsp90 (Saccharomyces cerevisiae, UniProt P02829); assay type: biochemical; conditions: 17-AAG, 3 hr; for inhibition of yeast Hsp90 ATPase activity in the presence of NQO1 (17-AAGH2 formed): NADH and rhNQO1
Procedure: Reactions with yeast Hsp90 (top panel) were analyzed after 3 hr, while reactions with human Hsp90 (bottom panel) were analyzed after 12 hr. Phosphate concentrations were measured using the malachite green assay.
Reactions (25 μl) were started by the addition of 1 mM ATP and allowed to proceed at 37° C. for the indicated times. Reactions were then diluted with 225 μl of 100 mM Tris-HCl, pH 7.4, containing 20 mM KCl and 6 mM MgCl2 mixed thoroughly, and 80 μl was transferred to each well (96 well plate) followed by 20 μl of malachite green reagent. After 10 min 83 mM trisodium citrate was added to stabilize the color and plates were read at 650 nm.

[5] = tested on: MDA468/NQ16 cells
[6] = clinical trials, background statement; cited from earlier work
[7] = tested on: MDA468 cell sonicates; assay: Reduction of 17-AAG by MDA468 cell sonicates, HPLC; assay type: in vitro ADME, human
[8] = biological target: T1, NQO1 (Homo sapiens, UniProt P15559); assay: Reduction of 17-AAG by rhNQO1 and NADH, HPLC analysis; assay type: in vitro ADME
Procedure: HPLC conditions: Buffer A, 50 mM ammonium acetate, pH 4 containing 10 μM D(−) penicillamine; buffer B, acetonitrile (100%). Both buffers were continuously bubbled with N2. Gradient, 20% B to 85% B over 20 min, then 85% for 4 min (flow rate of 1 ml/min). The sample injection volume was 50 μl. Liquid Chromatography-Mass Spectrometry was performed using positive ion electrospray ionization (ESI) and the mass spectra were obtained with a PE Sciex API-3000 triple quadrupole mass spectrometer (Foster City, Calif.) with a turbo ionspray source interfaced to a PE Sciex 200 HPLC system. Samples were chromatographed on a Luna C18 reverse-phase column (5 μm, 50×2 mm (Phenomenex) using a gradient elution consisting of a 2 min initial hold at 20% B followed by an increase to 80% B over 20 min at a flow rate of 0.2 ml/min and a sample injection volume of 20 μl. Buffer A, 10 mM ammonium acetate containing 0.1% (v/v) acetic acid, pH 4.4: buffer B, 10 mM ammonium acetate in acetonitrile containing 0.1% (v/v) acetic acid. The mass spectrometer settings were: turbo ionspray temperature of 250° C., spray needle voltage at 4500 V, declustering potential (DP) at 35 V and focus plate (FP) at 125 V. Mass spectra were continuously recorded from 150 to 1000 amu every 3 s during the chromatographic analysis.
Inhibition of rhNQO1 by ES936 was >98%. […]

[9] = tested on: MDA468/NQ16 cell sonicates; conditions: NADH or NADPH
Procedure: The human breast cancer cell line MDA468 and the NQO1 stably transfected cell line MDA468/NQ16 (Clin. Cancer Res. 2004; 10:3147-55) were grown in RPMI-1640 containing 10% (v/v) fetal bovine serum and 1% (v/v) penicillin, streptomycin and glutamine. […] Protein concentrations were determined by the method of Lowry. […] The parental MDA468 cell lines is NQO1 null (<10 nmoles DCPIP/min/mg) due to homozygous expression of the NQO1*2 polymorphism. The stable transfection of the MDA468 cell line with human NQO1 generated the MDA468/NQ16 cell line, which has high NQO1 activity (>1,800 nmoles DCPIP/min/mg).

[10] = tested on: Hsp90; assay: Immunoblot of Hsp90 inhibition markers (Hsp70, Raf-1, pMEK, pERK) in MDA468/NQ16 versus MDA468 cells; assay type: cell-based, human; conditions: MDA468/NQ16 compared to MDA468 cells
Procedure: Results were confirmed in duplicate experiments. […] Results were confirmed in duplicate experiments.
To measure Hsp90 inhibition in these cells we analyzed Hsp70 induction and Raf-1 degradation as markers of Hsp90 inhibition (FIG. 5). […] Following drug treatment cells were washed in PBS then lysed by the addition of RIPA buffer (50 mM Tris-HCl, pH 7.4, 0.5% (v/v) NP40) containing 1 mini-protease tablet (protease inhibitor cocktail, Roche Indianapolis Ind.) and phosphatase inhibitors (30 mM NaF, 40 mM β-glycerol phosphate, 20 mM sodium pyrophosphate, 1 mM orthovanadate, 1 mM EGTA). Lysates were probe sonicated (2s) on ice then centrifuged to remove cellular debris. Protein concentrations were determined on supernatant. […] Membranes were blocked in 10 mM Tris-HCl, pH 8.0, 150 mM NaCl, 0.2% Tween-20 and 5% non-fat milk for a minimum of 1 hr at room temperature. Anti-Hsp70, anti-Raf-1, anti-MEK and anti-ERK antibodies were added for 1 hr at room temperature. Anti-phospho MEK and ERK antibodies were added overnight at 4° C. All primary antibodies were diluted 1:1,000 except actin (1:5,000). Horseradish peroxidase-labeled secondary antibodies (Jackson ImmunoResearch Labs, West Grove Pa.) were diluted 1:5000 and added for 30 min. Proteins were visualized using enhanced chemilumenscence detection.

[11] = biological target: T1, NQO1; assay: Inhibition of rhNQO1 by ES936; assay type: biochemical
Excerpt: (§1) Inhibition of rhNQO1 by ES936 was >98%.

[12] = biological target: T1, NQO1; assay: Inhibition of NQO1 activity by ES936 in MDA468/NQ16 cells; assay type: cell-based; design: expressed in transfected cells; host or cells: MDA468/NQ16 (human breast cancer MDA468 stably transfected with human NQO1)
Excerpt: as §1

[13] = Stability (autoxidation) of 17-AAGH2 in solution by HPLC; assay type: physicochemical
Excerpt: Results are mean, standard deviation, n=3.
During analysis HPLC buffers were continuously gassed with N2 and a copper chelator was included. […] In these studies the autoxidation of 17-AAGH2 was followed over time in an aerobic reaction.

[14] = MDA468/NQ16 cells, 5 μM 17-AAG, 4 hr

T1 sequence (P15559 whole entry): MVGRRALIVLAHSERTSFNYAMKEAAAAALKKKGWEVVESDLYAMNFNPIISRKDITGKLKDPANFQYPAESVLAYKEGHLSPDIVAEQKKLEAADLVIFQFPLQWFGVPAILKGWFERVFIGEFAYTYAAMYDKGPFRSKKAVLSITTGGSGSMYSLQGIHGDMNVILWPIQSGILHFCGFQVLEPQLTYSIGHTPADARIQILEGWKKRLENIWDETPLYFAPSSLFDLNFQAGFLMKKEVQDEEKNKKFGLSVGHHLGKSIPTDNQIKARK
Chain of yeast Hsp90 (P02829 whole entry): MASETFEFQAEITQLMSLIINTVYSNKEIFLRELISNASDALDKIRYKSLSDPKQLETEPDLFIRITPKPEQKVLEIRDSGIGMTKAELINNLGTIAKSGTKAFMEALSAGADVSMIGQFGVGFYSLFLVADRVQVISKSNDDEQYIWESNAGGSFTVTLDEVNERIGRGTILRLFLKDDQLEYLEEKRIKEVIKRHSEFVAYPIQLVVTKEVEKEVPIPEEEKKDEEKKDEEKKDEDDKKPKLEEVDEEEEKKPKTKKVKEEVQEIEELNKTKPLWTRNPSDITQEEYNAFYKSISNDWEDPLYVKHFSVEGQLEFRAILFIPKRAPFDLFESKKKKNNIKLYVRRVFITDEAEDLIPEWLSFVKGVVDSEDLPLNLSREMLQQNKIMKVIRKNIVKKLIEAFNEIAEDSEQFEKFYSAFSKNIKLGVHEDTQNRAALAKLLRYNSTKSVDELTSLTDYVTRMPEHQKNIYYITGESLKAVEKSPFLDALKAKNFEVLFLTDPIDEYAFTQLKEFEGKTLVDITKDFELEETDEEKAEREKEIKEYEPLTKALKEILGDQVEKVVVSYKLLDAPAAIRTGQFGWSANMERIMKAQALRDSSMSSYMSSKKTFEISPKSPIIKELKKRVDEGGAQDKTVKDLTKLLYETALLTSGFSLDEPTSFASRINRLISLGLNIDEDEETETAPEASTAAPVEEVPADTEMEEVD

For `C=CCNC1=C2C[C@@H](C)C[C@H](OC)[C@H](O)[C@@H](C)/C=C(\C)[C@H](OC(N)=O)[C@@H](OC)/C=C\C=C(/C)C(=O)NC(=CC1=O)C2=O` [17-AAG, 17-demethoxy-17-(2-propenylamino)-geldanamycin], the “Cell viability (trypan blue exclusion assay)” value [1] was over 90%, the “formation of 17-AAGH2 in intact cells” value [1] was “No 17-AAGH2 could be detected” and the IC50 [2] was 10.1 ± 1.07 µM. The IC50 ([3]; read-out: IC50 growth inhibition after pretreatment with ES936, pretreatment with 100 nM ES936 for 30 min, 4 hr exposure then 72 hr) was 7.67 ± 1.36 µM, the IC50 ([3]; read-out: IC50 growth inhibition, MDA468/NQ16 cells, 4 hr exposure then 72 hr drug-free) was 0.86 ± 0.16 µM and the “inhibition of yeast Hsp90 ATPase activity in the presence of NQO1 (17-AAGH2 formed)” value [4] was “substantial decrease in ATPase activity”. For the same molecule, the “inhibition of yeast Hsp90 ATPase activity in the absence of NQO1” value ([4]; NADH) was “No inhibition”, the “Cell viability (trypan blue exclusion assay)” value [5, 14] was over 90% and the “formation of 17-AAGH2 in intact cells” value [5, 14] was 17-AAGH2 could be generated. The “accumulation of total drug (quinone plus hydroquinone) in cells” value ([5]; MDA468/NQ16 compared to ES936-treated or parental MDA468 cells) was “accumulated more total drug”, the “hepatotoxicity / liver toxicity” value [6] was “do not induce liver toxicity” and the “generation of 17-AAGH2 by cell sonicates” value [7] was “No 17-AAGH2 could be detected”. The “17-AAG detected in the form of the hydroquinone after reduction by NQO1” value [8] was 90%, the “generation of 17-AAGH2 by cell sonicates” value [9] was “readily generated 17-AAGH2” and the Hsp70 induction ([10]; 17-AAG 0.5-1 μM, 8 hr) was “greater Hsp70 induction”. The Raf-1 degradation ([10]; 17-AAG 0.5-1 μM, 8 hr) was “increased Raf-1 degradation” and the “MEK and ERK phosphorylation” value ([10]; serum starved 24 hr, 17-AAG 8 hr) was “decreased levels of both MEK and ERK phosphorylation”.
In the case of `COC1=CC(=O)c2c(c(COc3ccc([N+](=O)[O-])cc3)c(C)n2C)C1=O` [ES936, 5-methoxy-1,2-dimethyl-3-[(4-nitrophenoxy)methyl]indole-4,7-dione], the “Inhibition of rhNQO1” value [11] is reported as over 98%, the inhibition at 0.1 µM ([12]; single dose 100 nM ES936, after 4 hr, MDA468/NQ16 cells) is reported as over 96% and the “toxicity of ES936 to cells” value ([12]; single dose of 100 nM) is reported as “nontoxic”.
In the case of `C=CCNc1c(O)cc2c(O)c1CC(C)CC(OC)C(O)C(C)C=C(C)C(OC(N)=O)C(OC)C=CC=C(C)C(=O)N2` (stereo not shown) [17-AAGH2, 17-Demethoxy-18,21-dihydroxy-17-(2-propenylamino)-geldanamycin], the “autoxidation of the hydroquinone back to the quinone over time” value ([13]; aerobic, 50 mM potassium phosphate buffer pH 7.4, 27° C.) is reported as “slow rate of autoxidation back to 17-AAG over a period of hours”, the “effect of copper on 17-AAGH2 oxidation” value ([13]; inclusion of copper (CuSO4)) is reported as “could facilitate 17-AAGH2 oxidation” and the “inhibition of yeast Hsp90 ATPase activity in the presence of NQO1 (17-AAGH2 formed)” value [4] is reported as “the active Hsp90 inhibitor”.
In the case of `CO[C@H]1/C=C\C=C(/C)C(=O)NC2=CC(=O)C(NCCN(C)C)=C(C[C@@H](C)C[C@H](OC)[C@H](O)[C@@H](C)/C=C(\C)[C@@H]1OC(N)=O)C2=O` [17-DMAG, 17-demethoxy-17-[[2-(dimethylamino)ethyl]amino]-geldanamycin], the “hepatotoxicity / liver toxicity” value [6] is listed as “do not induce liver toxicity”.
In the case of `COC1=C2C[C@@H](C)C[C@H](OC)[C@H](O)[C@@H](C)/C=C(\C)[C@H](OC(N)=O)[C@@H](OC)/C=C\C=C(/C)C(=O)NC(=CC1=O)C2=O` [GDM, geldanamycin], the “hepatotoxicity / liver toxicity” value [6] is given as “unacceptable hepatotoxicity”.
